Reference: ChEMBL document CHEMBL1201862, “PubChem BioAssay data set” (2004)
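Assay format: 96-well plates, 48-hour exposure. The concentration for 50% growth inhibition is given as GI50.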 Calls of active or inactive are those of the source. Cut-off read from the data, not from the text of the source: active = GI50 up to about 1.1 µM and inactive = higher.

Experiments:
Experiment in all cases: growth of human tumour cells (NCI), 48 h
SK-OV-3 = test system: SK-OV-3
A498 = test system: A498
NCI-H226 = test system: NCI-H226
NCI-H522 = test system: NCI-H522
COLO 205 = test system: COLO 205
RXF 393 = test system: RXF 393
CAKI-1 = test system: CAKI-1
Malme-3M = test system: Malme-3M
SNB-75 = test system: SNB-75
M14 = test system: M14
UACC-257 = test system: UACC-257
ACHN = test system: ACHN
HCT-15 = test system: HCT-15
OVCAR-4 = test system: OVCAR-4
OVCAR-3 = test system: OVCAR-3
SNB-19 = test system: SNB-19
HOP-92 = test system: HOP-92
DLD-1 = test system: DLD-1

| Structure (SMILES) | GI50 (SK-OV-3) | GI50 (A498) | GI50 (NCI-H226) | GI50 (NCI-H522) | GI50 (COLO 205) | GI50 (RXF 393) | GI50 (CAKI-1) | GI50 (Malme-3M) | GI50 (SNB-75) | GI50 (M14) | GI50 (UACC-257) | GI50 (ACHN) | GI50 (HCT-15) | GI50 (OVCAR-4) | GI50 (OVCAR-3) | GI50 (SNB-19) | GI50 (HOP-92) | GI50 (DLD-1) |
| --- | --- | --- | --- | --- | --- | --- | --- | --- | --- | --- | --- | --- | --- | --- | --- | --- | --- | --- |
| COc1c(Cl)c(Cl)c(OC)c2c1C(=O)C=CC2=O | 76.7 µM (inactive) | > 100 µM (inactive) | 33.5 µM (inactive) | 17.6 µM (inactive) | 16.2 µM (inactive) | 17.1 µM (inactive) | 22.9 µM (inactive) | 15.1 µM (inactive) | 21.4 µM (inactive) | 19.6 µM (inactive) | 18.1 µM (inactive) | 15.1 µM (inactive) | 35.6 µM | 15.3 µM (inactive) | 17.3 µM (inactive) | 32.1 µM (inactive) | 15.3 µM (inactive) | 14.5 µM (inactive) |
| O=C(/C=C/c1ccc(Cl)c(Cl)c1)c1ccc2ccccc2c1 | > 100 µM (inactive) | > 100 µM (inactive) | 70.5 µM (inactive) | 88.5 µM (inactive) | 13.6 µM (inactive) | > 100 µM (inactive) | > 100 µM (inactive) | > 100 µM (inactive) | 52 µM (inactive) | > 100 µM (inactive) | > 100 µM (inactive) | > 100 µM (inactive) | > 100 µM | > 100 µM (inactive) | > 100 µM (inactive) | > 100 µM (inactive) | > 100 µM (inactive) | > 100 µM (inactive) |
| CCOc1ccc(NC(=O)/C(=C/c2ccccc2)C(C)=O)cc1 | 24.6 µM (inactive) | 18.1 µM (inactive) | 13.2 µM (inactive) | 2.12 µM (inactive) | 17.2 µM (inactive) | 5.32 µM (inactive) | 11.7 µM (inactive) | 16.5 µM (inactive) | 4.59 µM (inactive) | 12.3 µM (inactive) | 12.2 µM (inactive) | 15.3 µM (inactive) | 8.99 µM | 13.4 µM (inactive) | 12.5 µM (inactive) | 12.1 µM (inactive) | 14.1 µM (inactive) | 7.38 µM (inactive) |
| COc1ccc2nc(NC(=O)C(=O)CC(=O)c3ccc([N+](=O)[O-])cc3)sc2c1 | > 100 µM (inactive) | > 100 µM (inactive) | > 100 µM (inactive) | > 100 µM (inactive) | > 100 µM (inactive) | – | > 100 µM (inactive) | > 100 µM (inactive) | > 100 µM (inactive) | > 100 µM (inactive) | > 100 µM (inactive) | > 100 µM (inactive) | – | > 100 µM (inactive) | > 100 µM (inactive) | > 100 µM (inactive) | > 100 µM (inactive) | > 100 µM (inactive) |
| C[N+](C)(C)CCc1ccccc1 | > 100 µM (inactive) | > 100 µM (inactive) | > 100 µM (inactive) | > 100 µM (inactive) | > 100 µM (inactive) | > 100 µM (inactive) | > 100 µM (inactive) | > 100 µM (inactive) | > 100 µM (inactive) | > 100 µM (inactive) | > 100 µM (inactive) | > 100 µM (inactive) | > 100 µM | > 100 µM (inactive) | > 100 µM (inactive) | > 100 µM (inactive) | > 100 µM (inactive) | > 100 µM (inactive) |
| COc1cc2c(cc1C)[n+]([O-])c(C)c(C(=O)C/C(=N/NC(=O)C[N+](C)(C)C)C(=O)Nc1cccc(Cl)c1C)[n+]2[O-] | – | > 100 µM (inactive) | > 100 µM (inactive) | > 100 µM (inactive) | > 100 µM (inactive) | > 100 µM (inactive) | > 100 µM (inactive) | > 100 µM (inactive) | > 100 µM (inactive) | > 100 µM (inactive) | > 100 µM (inactive) | > 100 µM (inactive) | > 100 µM | > 100 µM (inactive) | > 100 µM (inactive) | > 100 µM (inactive) | > 100 µM (inactive) | > 100 µM (inactive) |
| CN(C)/N=N/c1ccccc1 | > 100 µM (inactive) | > 100 µM (inactive) | > 100 µM (inactive) | 21.7 µM (inactive) | > 100 µM (inactive) | > 100 µM (inactive) | > 100 µM (inactive) | > 100 µM (inactive) | > 100 µM (inactive) | > 100 µM (inactive) | – | 25.9 µM (inactive) | 16.7 µM | > 100 µM (inactive) | > 100 µM (inactive) | > 100 µM (inactive) | > 100 µM (inactive) | > 100 µM (inactive) |
| CC(C)C(=O)/C=C/c1ccc(Cl)c(Cl)c1 | 28.6 µM (inactive) | 24.8 µM (inactive) | – | 13.4 µM (inactive) | 24.9 µM (inactive) | 16.7 µM (inactive) | – | – | > 10 µM (inactive) | 17.5 µM (inactive) | 21.5 µM (inactive) | 18.5 µM (inactive) | – | 34.9 µM (inactive) | 14.5 µM (inactive) | 15.1 µM (inactive) | 17.4 µM (inactive) | 14.6 µM (inactive) |
| NNC(=O)CC(=O)Nc1ccccc1F | > 100 µM (inactive) | > 100 µM (inactive) | > 100 µM (inactive) | > 100 µM (inactive) | > 100 µM (inactive) | > 100 µM (inactive) | > 100 µM (inactive) | > 100 µM (inactive) | > 100 µM (inactive) | > 100 µM (inactive) | > 100 µM (inactive) | > 100 µM (inactive) | > 100 µM | > 100 µM (inactive) | > 100 µM (inactive) | > 100 µM (inactive) | > 100 µM (inactive) | > 100 µM (inactive) |
| C(=C\c1c2oc(-c3ccccc3)cc(-c3ccccc3)c-2c2ccccc12)/C=C1\c2ccccc2-c2c(-c3ccccc3)cc(-c3ccccc3)[o+]c21.[O-][Cl+3]([O-])([O-])[O-] | > 100 µM (inactive) | > 100 µM (inactive) | > 100 µM (inactive) | > 100 µM (inactive) | > 100 µM (inactive) | > 100 µM (inactive) | – | > 100 µM (inactive) | 45.9 µM (inactive) | 37 µM (inactive) | > 100 µM (inactive) | > 100 µM (inactive) | > 100 µM | > 100 µM (inactive) | > 100 µM (inactive) | > 100 µM (inactive) | > 100 µM (inactive) | > 100 µM (inactive) |
| COc1cccc2c1C1=CC(=O)CCC1C(C)(C)O2 (stereo not given) | > 100 µM (inactive) | > 100 µM (inactive) | > 100 µM (inactive) | > 100 µM (inactive) | 67.6 µM (inactive) | 6.03 µM (inactive) | > 100 µM (inactive) | > 100 µM (inactive) | > 100 µM (inactive) | > 100 µM (inactive) | > 100 µM (inactive) | > 100 µM (inactive) | > 100 µM | > 100 µM (inactive) | > 100 µM (inactive) | > 100 µM (inactive) | > 100 µM (inactive) | 57.5 µM (inactive) |
| O=c1oc2ccccc2[n+]([O-])c1-c1ccccc1 | > 100 µM (inactive) | > 100 µM (inactive) | > 100 µM (inactive) | 36.6 µM (inactive) | > 100 µM (inactive) | > 100 µM (inactive) | > 100 µM (inactive) | > 100 µM (inactive) | 49.7 µM (inactive) | > 100 µM (inactive) | > 100 µM (inactive) | > 100 µM (inactive) | > 100 µM | > 100 µM (inactive) | > 100 µM (inactive) | > 100 µM (inactive) | > 100 µM (inactive) | > 100 µM (inactive) |
| CN(CCN1C(=O)c2cc([N+](=O)[O-])cc3cc([N+](=O)[O-])cc(c23)C1=O)CCN1C(=O)c2cc([N+](=O)[O-])cc3cc([N+](=O)[O-])cc(c23)C1=O | 2.31 µM (inactive) | 12.8 µM (inactive) | 0.778 µM (active) | 0.421 µM (active) | 0.393 µM (active) | 0.238 µM (active) | 0.322 µM (active) | 0.815 µM (active) | 0.695 µM (active) | 0.652 µM (active) | 1.21 µM (inactive) | 0.264 µM (active) | 0.482 µM | 0.524 µM (active) | 0.646 µM (active) | – | 0.252 µM (active) | 0.448 µM (active) |
| Cc1ccc(S(=O)(=O)c2ccc(C)cc2[N+](=O)[O-])cc1 | > 100 µM (inactive) | 19.4 µM (inactive) | > 100 µM (inactive) | 43.7 µM (inactive) | > 100 µM (inactive) | 82 µM (inactive) | 95.9 µM (inactive) | > 100 µM (inactive) | > 100 µM (inactive) | > 100 µM (inactive) | 28.8 µM (inactive) | > 100 µM (inactive) | > 100 µM | > 100 µM (inactive) | 46.9 µM (inactive) | > 100 µM (inactive) | > 100 µM (inactive) | > 100 µM (inactive) |
| COC(=O)C1C=CCON2CCc3c(n(S(=O)(=O)c4ccccc4)c4ccccc34)C12 (stereo not given) | > 61.9 µM (inactive) | > 100 µM (inactive) | > 46.2 µM (inactive) | 26.9 µM (inactive) | 33.5 µM (inactive) | > 67.5 µM (inactive) | 57.3 µM (inactive) | > 64.7 µM (inactive) | 79.3 µM (inactive) | 44.5 µM (inactive) | 50.1 µM (inactive) | 65.3 µM (inactive) | 50.8 µM | > 31.6 µM (inactive) | 33.7 µM (inactive) | > 46.6 µM (inactive) | > 80.7 µM (inactive) | 10.7 µM (inactive) |
| Cc1c2cc[n+](C)cc2c(C)c2c1[nH]c1ccc(O)c(OCC(F)(F)F)c12 | 6.75 µM (inactive) | 10.8 µM (inactive) | 0.432 µM (active) | 1.01 µM (active) | 1.77 µM (inactive) | – | 12.8 µM (inactive) | 1.63 µM (inactive) | 0.188 µM (active) | 6.22 µM (inactive) | 6.31 µM (inactive) | – | – | 1.26 µM (inactive) | 0.895 µM (active) | 0.218 µM (active) | 4.91 µM (inactive) | 2.34 µM (inactive) |
